Experimental data as given in publication PMC6832134, “Discovery of Novel Integrase Inhibitors Acting outside the Active Site Through High-Throughput Screening” (Molecules, 2019).
Read-outs that look alike come from different tables or passages of the source.

Legend:
HIV-1 IN mutant N155H = molecular target: T1, HIV-1 IN mutant N155H (Human immunodeficiency virus type 1 group M subtype B, UniProt P12497, N1302H); test: biochemical; format: biochemical
T1 construct: RAL-resistant HIV-1 mutant integrases; made in house; host or cells: E. coli RosettaII
Procedure: (§1) IN reactions were carried out by adding drugs or an equivalent volume of 100% DMSO (dimethyl sulfoxide, used as the drug solvent) to a mixture of 20 nM duplex DNA (21T/21B) and 400 nM IN in 50 mM MOPS pH 7.2, 7.5 mM MgCl2, and 14 mM 2-mercaptoethanol. Reactions were performed at 37 °C for 2 h and quenched by addition of an equal volume of loading buffer [formamide containing 1% SDS (sodium dodecyl sulfate), 0.25% bromophenol blue, and xylene cyanol]. Reaction products were separated in 16% polyacrylamide denaturing sequencing gels. Dried gels were visualized using a Typhoon 8600 (GE Healthcare, Piscataway, NJ, USA). Densitometric analyses were performed using the ImageQuant 5.1 software from GE Healthcare. Data analyses (linear regression, IC50 determination, and standard deviation) were performed using Prism 6.05 software from GraphPad.

[1] = molecular target: T2, isolated catalytic core domain (CCD) of IN (Human immunodeficiency virus type 1 group M subtype B, UniProt P12497); test: Disintegration reaction, isolated catalytic core domain; format: biochemical, HIV-1; conditions: branched substrate
T2 construct: the isolated catalytic core domain (CCD) (51–212); made in house; host or cells: E. coli RosettaII
Source text: Conventional IN strand transfer inhibitors bind at the interface created by the protein, viral DNA, and two magnesium cations in the catalytic site of the enzyme. Because stilbene disulfonic acid derivatives inhibit both 3′-P and ST with a similar efficiency, they may act outside the IN catalytic site. To determine if IN domains other than the catalytic core domain (CCD) are involved in the inhibitory activity of NSC34931, we tested this compound on disintegration, the only IN-mediated reaction that can be catalyzed by the isolated CCD. Disintegration is equivalent to a reverse-ST reaction (Figure 3A). Using a branched substrate, the WT enzyme as well as the isolated CCD catalyzed disintegration with similar efficiency (Figure 3B). NSC34931 inhibited disintegration catalyzed by the full-length IN at concentrations above 4.1 µM (Figure 3B,C). However, NSC34931 was unable to inhibit disintegration catalyzed by the CCD at concentrations up to 37 µM (Figure 3B,C). These experiments indicate that the N-terminal domain (NTD) and/or the C-terminal domain (CTD) are essential for IN inhibition by NSC34931.
Figure 3 Inhibition of the disintegration reaction by NSC34931. (A) Schematic representation of the disintegration reaction. […]

full-length IN (1–288) = molecular target: T3, full-length IN (1–288) (Human immunodeficiency virus type 1 group M subtype B, UniProt P12497); test: Schiff base IN-DNA crosslinking assay, full-length IN; format: binding, HIV-1
T3 construct: using full-length IN (1–288), the isolated catalytic core domain (CCD) (51–212); made in house; host or cells: E. coli RosettaII
Source text: (§2) To gain further evidence that NSC34931 interferes with DNA binding, and to determine the role of outer domains in this inhibition, we evaluated the ability of NSC34931 to inhibit the formation of IN-DNA crosslinks using our previously described Schiff base assay. Briefly, a deoxyuracyl nucleotide is incorporated in the DNA substrate to generate an abasic site via uracyl DNA glycosylase. IN forms a covalent complex (Schiff base), which can be stabilized by reduction with sodium borohydride (Figure 5A). Full-length IN, but also the isolated CCD or CTD domains, can crosslink DNA ([…]). Consistent with anisotropy data, NSC34931 suppresses the formation of IN-DNA crosslinks in the context of the full-length IN (Figure 5B, upper gel). Of note, the effective dose to inhibit this reaction is similar to that needed to inhibit 3′-P or ST (about 0.45 µM). In contrast, the IN CCD requires a 10 times higher concentration of compound to prevent DNA crosslinking, confirming that the NTD or the CTD are important for NSC34931 inhibition. Lastly, the same experiment was conducted with the isolated CTD (Figure 5B, lower gel).
(§3) Figure 5 Inhibition of IN-DNA binding by NSC34931. (A) Principle of the Schiff base crosslinking assay. An abasic site was introduced by uracil DNA glycosylase in the DNA substrate at the -12 position. […]

HIV-1 IN [2] = molecular target: T4, HIV-1 IN (Human immunodeficiency virus type 1 group M subtype B, UniProt P12497); test: Gel-based IN 3'-processing assay; format: biochemical; conditions: at least three independent experiments, read-out: In Vitro IC50 +/−SD, 3'-P
T4 construct: 250 nM of recombinant HIV-1 integrase; made in house; host or cells: E. coli RosettaII
Procedure: as §1

HIV-1 IN (WT) = molecular target: T5, HIV-1 IN (WT) (Human immunodeficiency virus type 1 group M subtype B, UniProt P12497); test: Gel-based IN strand transfer assay, WT enzyme; format: biochemical
T5 construct: 250 nM of recombinant HIV-1 integrase; made in house; host or cells: E. coli RosettaII
Procedure: as §1

HIV-1 IN [3] = molecular target: T4, HIV-1 IN; test: Synergy test with the active site inhibitor MK-2048; format: biochemical; conditions: subinhibitory dose of stilbene disulfonic acid derivative; IC50 of MK-2048 not affected; data not shown
[4] = molecular target: T6, isolated C-terminal domain (CTD) (220–288) (Human immunodeficiency virus type 1 group M subtype B, UniProt P12497); test: Schiff base IN-DNA crosslinking assay, isolated CTD; format: binding, HIV-1
T6 construct: the isolated C-terminal domain (CTD) (220–288); made in house; host or cells: E. coli RosettaII
Source text: as §2, §3

Compound: O=S(=O)(O)c1cc(/N=N/c2cc(S(=O)(=O)O)c3ccccc3c2O)ccc1/C=C/c1ccc(/N=N/c2cc(S(=O)(=O)O)c3ccccc3c2O)cc1S(=O)(=O)O [NSC34931]
- IC50 (HIV-1 IN mutant N155H): 160 nM
- concentration up to which disintegration is not inhibited [1]: > 37 µM
- effective dose to inhibit IN-DNA crosslink formation (full-length IN (1–288)): about 0.45 µM
- IC50 (HIV-1 IN [2]): 320 ± 120 nM
- activity with Mg2+ or Mn2+ as metal cofactor (HIV-1 IN (WT); data not shown): equally active
- IC50 (HIV-1 IN (WT); gel-based assay, coupled ST, at least three independent experiments, read-out: In Vitro IC50 +/−SD, ST): 180 ± 70 nM
- IC50 (HIV-1 IN (WT); precleaved substrate (bypassing the 3'-P step), data not shown, read-out: IC50, ST inhibition with precleaved substrate): 230 nM
- synergy with active site inhibitor MK-2048 (HIV-1 IN [3]): could not see any cooperative effect
- inhibition of CTD-DNA crosslinks [4]: in the same concentration range than in the context of the full-length enzyme
